In patent US20090197897A1, “Novel Oxadiazole Derivatives and Their Use as Positive Allosteric Modulators of Metabotropic Glutamate Receptors” (Addex Pharma SA, priority 2005, published 2009):

What was measured:
[1] = tested on: amphetamine-induced locomotor activation in mice; test: Amphetamine model of schizophrenia (amphetamine-induced locomotor activity); format: in vivo; conditions: 30 & 50 mg/kg ip, 30 min before amphetamine 3.0 mg/kg s.c., 60 min
Description: Amphetamine-induced increases in locomotor ambulation are well known and are widely used as a model of the positive symptoms of schizophrenia. This model is based on evidence that amphetamine increases motor behaviors and can induce a psychotic state in humans (Yui et al. (2000) Ann NY Acad Sci 914:1-12). Further, it is well known that amphetamine-induced increases in locomotor activity are blocked by antipsychotics drugs that are effective in the treatment of schizophrenia (Arnt (1995) Eur J Pharmacol 283:55-62). […]
Assessment of locomotor (ambulatory) activity: The effects of compounds on amphetamine-induced locomotor activation in mice were tested. […] Locomotor activity (ambulations) was monitored by a videotracking system (VideoTrack, Viewpoint, Champagne au Mont d'Or, France) that recorded the ambulatory movements of mice. […] Mice were placed into the locomotor boxes immediately after the amphetamine injection and their locomotor activity, defined as the distance traveled in centimeters (cm), was measured for 60 minutes. […]
Statistical analyses: Statistical analyses were performed using GraphPad PRISM statistical software (GraphPad, San Diego, Calif., USA). Data were analyzed using one-way analysis of variance (ANOVA) followed by post-hoc Bonferroni-corrected multiple comparisons, where appropriate. […]

rat mGluR5 = biological target: T1, rat mGluR5 (Rattus norvegicus, UniProt P31424); test: mGluR5 assay on HEK-expressing rat mGluR5 (fluorescent cell based Ca2+ mobilization assay); conditions: HEK-293 cells stably expressing rat mGluR5; no co-addition of glutamate; mean of at least three independent experiments in duplicate; read-out: Ca++ Flux (mean EC50)
T1 construct: expressed in transfected cells
T1 sequence (P31424 21-1171 isoform P31424-2 limits assumed): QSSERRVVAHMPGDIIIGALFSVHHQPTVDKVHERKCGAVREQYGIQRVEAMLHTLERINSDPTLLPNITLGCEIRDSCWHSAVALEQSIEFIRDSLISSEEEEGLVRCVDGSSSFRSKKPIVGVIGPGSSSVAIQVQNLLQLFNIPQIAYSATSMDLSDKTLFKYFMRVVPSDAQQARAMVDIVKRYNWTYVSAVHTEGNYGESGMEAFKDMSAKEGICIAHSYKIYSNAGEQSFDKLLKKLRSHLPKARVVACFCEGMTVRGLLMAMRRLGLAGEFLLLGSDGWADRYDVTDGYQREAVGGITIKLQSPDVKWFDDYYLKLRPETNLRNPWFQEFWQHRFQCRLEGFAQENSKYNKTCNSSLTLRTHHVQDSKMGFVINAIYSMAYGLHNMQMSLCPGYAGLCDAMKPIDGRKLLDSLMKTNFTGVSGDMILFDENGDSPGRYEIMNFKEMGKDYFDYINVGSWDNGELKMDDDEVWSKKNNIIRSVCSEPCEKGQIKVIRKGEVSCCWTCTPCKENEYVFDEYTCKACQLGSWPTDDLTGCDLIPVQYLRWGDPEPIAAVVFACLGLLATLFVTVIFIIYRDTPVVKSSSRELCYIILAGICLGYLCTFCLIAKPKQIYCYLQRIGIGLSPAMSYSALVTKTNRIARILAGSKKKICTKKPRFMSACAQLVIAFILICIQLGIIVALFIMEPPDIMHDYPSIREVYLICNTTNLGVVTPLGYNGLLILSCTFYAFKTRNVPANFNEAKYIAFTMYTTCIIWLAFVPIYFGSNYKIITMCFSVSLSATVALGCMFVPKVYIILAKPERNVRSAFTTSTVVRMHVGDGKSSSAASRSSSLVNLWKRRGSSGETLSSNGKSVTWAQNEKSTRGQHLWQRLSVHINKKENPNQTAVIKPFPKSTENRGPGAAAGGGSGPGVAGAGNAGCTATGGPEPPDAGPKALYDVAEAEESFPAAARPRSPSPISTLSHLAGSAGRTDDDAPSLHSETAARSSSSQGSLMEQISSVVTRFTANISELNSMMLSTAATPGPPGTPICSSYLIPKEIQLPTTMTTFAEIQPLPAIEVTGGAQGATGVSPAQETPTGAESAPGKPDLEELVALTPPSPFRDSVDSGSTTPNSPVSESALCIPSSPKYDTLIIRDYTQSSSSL
Procedure, shortened: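 HEK-293 cells stably expressing rat mGluR5, Fluo-4 loaded 60 min, in HEPES buffer pH 7.4 with sulfinpyrazone; compound (0.01 to 60 μM, 0.3% DMSO) added alone, no glutamate co-addition, and Ca2+ fluorescence followed 3 min by FLIPR. Duplicate points; EC50 from four-parameter logistic fit, mean of at least three experiments.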

mGluR5 = biological target: T2, mGluR5 (Rattus norvegicus, UniProt P31424); test: mGluR5 binding assay ([3H]-MPEP, rat brain membranes); conditions: 3 nM [3H]-MPEP, 1 h at 4° C.
T2 construct: positive allosteric modulators of mGluR5 receptors in native preparations; endogenous in cells; host or cells: primary cortical astrocytes from Sprague-Dawley rat embryos (day 16 to 19)
T2 sequence (P31424 21-1203): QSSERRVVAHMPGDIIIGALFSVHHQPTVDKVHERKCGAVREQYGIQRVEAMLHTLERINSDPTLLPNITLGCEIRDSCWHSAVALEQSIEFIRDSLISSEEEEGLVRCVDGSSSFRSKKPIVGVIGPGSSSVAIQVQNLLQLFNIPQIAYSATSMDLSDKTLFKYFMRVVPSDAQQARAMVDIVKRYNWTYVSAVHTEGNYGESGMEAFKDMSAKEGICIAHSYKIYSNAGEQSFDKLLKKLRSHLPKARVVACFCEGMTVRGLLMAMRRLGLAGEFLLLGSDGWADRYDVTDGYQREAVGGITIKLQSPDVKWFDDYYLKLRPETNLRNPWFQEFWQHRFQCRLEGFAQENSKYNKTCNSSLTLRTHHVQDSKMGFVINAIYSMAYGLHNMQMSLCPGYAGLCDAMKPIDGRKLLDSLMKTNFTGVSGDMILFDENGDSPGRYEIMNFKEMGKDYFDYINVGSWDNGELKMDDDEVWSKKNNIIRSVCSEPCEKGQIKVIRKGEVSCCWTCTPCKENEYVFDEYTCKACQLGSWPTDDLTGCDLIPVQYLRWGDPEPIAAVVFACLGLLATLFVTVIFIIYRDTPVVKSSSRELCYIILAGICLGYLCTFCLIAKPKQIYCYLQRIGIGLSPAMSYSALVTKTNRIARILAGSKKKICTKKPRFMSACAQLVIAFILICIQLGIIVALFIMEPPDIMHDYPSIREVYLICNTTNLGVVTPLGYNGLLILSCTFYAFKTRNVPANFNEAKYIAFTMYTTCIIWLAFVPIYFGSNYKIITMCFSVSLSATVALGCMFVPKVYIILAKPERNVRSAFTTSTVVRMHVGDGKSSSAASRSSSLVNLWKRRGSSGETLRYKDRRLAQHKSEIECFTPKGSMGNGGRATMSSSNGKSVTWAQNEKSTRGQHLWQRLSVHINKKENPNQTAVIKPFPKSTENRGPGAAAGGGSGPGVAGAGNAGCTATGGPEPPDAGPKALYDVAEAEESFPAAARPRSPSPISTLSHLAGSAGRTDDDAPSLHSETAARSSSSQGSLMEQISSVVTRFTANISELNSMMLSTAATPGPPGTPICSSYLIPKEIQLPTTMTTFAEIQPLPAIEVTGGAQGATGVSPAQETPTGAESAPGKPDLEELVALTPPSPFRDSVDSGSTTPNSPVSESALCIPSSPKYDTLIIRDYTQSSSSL
Description: Activity of compounds of the invention was examined following a radioligand binding technique using whole rat brain and tritiated 2-methyl-6-(phenylethynyl)-pyridine ([^3H]-MPEP) as a ligand following similar methods than those described in Gasparini et al. (2002) Bioorg. Med. Chem. Lett. 12:407-409 and in Anderson et al. (2002) J. Pharmacol. Exp. Ther. 303 (3) 1044-1051.
Cortices were dissected out from brains of 200-300 g Sprague-Dawley rats (Charles River Laboratories, L'Arbresle, France). Tissues were homogenized in 10 volumes (vol/wt) of ice-cold 50 mM Hepes-NaOH (pH 7.4) using a Polytron disrupter (Kinematica AG, Luzern, Switzerland) and centrifuged for 30 min at 40,000 g. (4° C.). […] Protein concentration was determined by the Bradford method (Bio-Rad protein assay, Reinach, Switzerland) with bovine serum albumin as standard.
Membranes were thawed and resuspended in binding buffer containing 20 mM HEPES-NaOH, 3 mM MgCl2, 3 mM CaCl2, 100 mM NaCl, pH 7.4. […] Radioactivity was determined by liquid scintillation spectrometry using a 96-well plate reader (TopCount, Perkin-Elmer, Downers Grove, USA).
The inhibition curves were generated using the Prism GraphPad program (Graph Pad Software Inc, San Diego, USA). […] The mean of IC50 obtained from at least three independent experiments of selected molecules performed in duplicate were calculated.

Cc1oncc1C(=O)N1CCC[C@H](c2nc(-c3ccc(F)cc3)no2)C1 [Example 5, (S)-{3-[3-(4-Fluoro-phenyl)-[1,2,4]oxadiazol-5-yl]-piperidin-1-yl}-(5-methyl-isoxazol-4-yl)-methanone]
increase in locomotor activity induced by amphetamine ([1]; listed as compound # 5): significantly attenuated
increase in locomotor activity induced by amphetamine ([1]; listed as example 5): significantly attenuate
EC50 (rat mGluR5): < 1 µM

O=C(c1ccc(F)nc1)N1CCC[C@H](c2nc(-c3ccc(F)cc3)no2)C1 [Example 29, (S)-{3-[3-(4-Fluoro-phenyl)-[1,2,4]oxadiazol-5-yl]-piperidin-1-yl}-(6-fluoro-pyridin-3-yl)-methanone]
EC50 (rat mGluR5): < 1 µM
IC50 (mGluR5): < 30 µM
